Measurements published in paper PMC11873239, “A covalent chemical probe for Chikungunya nsP2 cysteine protease with antialphaviral activity and proteome-wide selectivity” (Scientific Reports, 2025).

Experiments:
Assay type in all cases: binding
[1] = target: HEK293 cell lysate proteins (Homo sapiens, UniProt O75342)
[2] = target: HEK293 cell lysate proteins (Homo sapiens, UniProt P02788)
[3] = target: HEK293 cell lysate proteins (Homo sapiens, UniProt P04264)
[4] = target: HEK293 cell lysate proteins (Homo sapiens, UniProt P04406)
Chain of HEK293 cell lysate proteins (Homo sapiens, UniProt P04406) (P04406 whole entry): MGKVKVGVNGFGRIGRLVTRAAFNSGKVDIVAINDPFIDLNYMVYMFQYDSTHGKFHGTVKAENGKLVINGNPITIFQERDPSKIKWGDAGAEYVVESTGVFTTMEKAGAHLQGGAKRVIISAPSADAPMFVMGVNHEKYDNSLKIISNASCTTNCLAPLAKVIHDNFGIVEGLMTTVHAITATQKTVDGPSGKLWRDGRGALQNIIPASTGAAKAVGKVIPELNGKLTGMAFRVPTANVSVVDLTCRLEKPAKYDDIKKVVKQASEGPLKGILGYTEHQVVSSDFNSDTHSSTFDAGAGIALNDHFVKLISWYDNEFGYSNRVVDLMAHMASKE

[5] = target: HEK293 cell lysate proteins (Homo sapiens, UniProt P07355)
Chain of HEK293 cell lysate proteins (Homo sapiens, UniProt P07355) (P07355 whole entry): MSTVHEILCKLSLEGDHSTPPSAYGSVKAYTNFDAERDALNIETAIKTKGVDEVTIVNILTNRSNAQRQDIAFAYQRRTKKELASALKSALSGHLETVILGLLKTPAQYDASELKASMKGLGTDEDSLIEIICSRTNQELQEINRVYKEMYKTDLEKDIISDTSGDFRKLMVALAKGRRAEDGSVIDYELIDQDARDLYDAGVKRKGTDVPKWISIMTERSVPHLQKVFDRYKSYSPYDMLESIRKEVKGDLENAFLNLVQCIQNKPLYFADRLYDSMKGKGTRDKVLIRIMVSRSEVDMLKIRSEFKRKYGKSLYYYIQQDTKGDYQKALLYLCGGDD

[6] = target: HEK293 cell lysate proteins (Homo sapiens, UniProt P0DOX5)
[7] = target: HEK293 cell lysate proteins (Homo sapiens, UniProt P11142)
[8] = target: HEK293 cell lysate proteins (Homo sapiens, UniProt P11586)
[9] = target: HEK293 cell lysate proteins (Homo sapiens, UniProt P22528)
[10] = target: HEK293 cell lysate proteins (Homo sapiens, UniProt P25311)
[11] = target: HEK293 cell lysate proteins (Homo sapiens, UniProt P41252)
[12] = target: HEK293 cell lysate proteins (Homo sapiens, UniProt P60709)
[13] = target: HEK293 cell lysate proteins (Homo sapiens, UniProt P61626)
Chain of HEK293 cell lysate proteins (Homo sapiens, UniProt P61626) (P61626 19-148): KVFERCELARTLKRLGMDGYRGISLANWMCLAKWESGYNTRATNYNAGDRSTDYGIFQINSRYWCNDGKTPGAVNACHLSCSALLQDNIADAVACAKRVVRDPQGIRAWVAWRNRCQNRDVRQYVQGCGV

[14] = target: HEK293 cell lysate proteins (Homo sapiens, UniProt Q02413)
[15] = target: HEK293 cell lysate proteins (Homo sapiens, UniProt Q08188)
[16] = target: HEK293 cell lysate proteins (Homo sapiens, UniProt Q13835)
[17] = target: HEK293 cell lysate proteins (Homo sapiens, UniProt Q14684)
Chain of HEK293 cell lysate proteins (Homo sapiens, UniProt Q14684) (Q14684 whole entry): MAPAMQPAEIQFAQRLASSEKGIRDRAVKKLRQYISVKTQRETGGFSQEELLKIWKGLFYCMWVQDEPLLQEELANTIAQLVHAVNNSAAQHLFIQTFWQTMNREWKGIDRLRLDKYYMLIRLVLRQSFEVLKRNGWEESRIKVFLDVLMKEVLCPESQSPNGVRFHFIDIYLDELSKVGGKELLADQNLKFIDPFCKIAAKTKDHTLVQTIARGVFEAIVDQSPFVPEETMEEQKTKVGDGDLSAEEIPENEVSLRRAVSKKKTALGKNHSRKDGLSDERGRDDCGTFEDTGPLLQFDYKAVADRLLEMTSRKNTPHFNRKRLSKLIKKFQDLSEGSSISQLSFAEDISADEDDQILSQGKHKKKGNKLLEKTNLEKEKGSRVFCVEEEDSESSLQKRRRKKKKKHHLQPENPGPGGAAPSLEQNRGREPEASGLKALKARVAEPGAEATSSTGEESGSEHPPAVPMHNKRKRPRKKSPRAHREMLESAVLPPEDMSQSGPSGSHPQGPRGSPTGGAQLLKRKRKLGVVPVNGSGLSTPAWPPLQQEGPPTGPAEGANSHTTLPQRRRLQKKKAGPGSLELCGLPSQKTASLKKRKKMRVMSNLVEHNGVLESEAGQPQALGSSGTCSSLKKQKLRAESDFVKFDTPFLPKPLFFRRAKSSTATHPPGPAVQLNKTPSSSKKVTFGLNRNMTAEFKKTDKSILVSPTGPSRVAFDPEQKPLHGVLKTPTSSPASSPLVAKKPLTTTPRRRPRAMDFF

[18] = target: HEK293 cell lysate proteins (Homo sapiens, UniProt Q15648)
Chain of HEK293 cell lysate proteins (Homo sapiens, UniProt Q15648) (Q15648 whole entry): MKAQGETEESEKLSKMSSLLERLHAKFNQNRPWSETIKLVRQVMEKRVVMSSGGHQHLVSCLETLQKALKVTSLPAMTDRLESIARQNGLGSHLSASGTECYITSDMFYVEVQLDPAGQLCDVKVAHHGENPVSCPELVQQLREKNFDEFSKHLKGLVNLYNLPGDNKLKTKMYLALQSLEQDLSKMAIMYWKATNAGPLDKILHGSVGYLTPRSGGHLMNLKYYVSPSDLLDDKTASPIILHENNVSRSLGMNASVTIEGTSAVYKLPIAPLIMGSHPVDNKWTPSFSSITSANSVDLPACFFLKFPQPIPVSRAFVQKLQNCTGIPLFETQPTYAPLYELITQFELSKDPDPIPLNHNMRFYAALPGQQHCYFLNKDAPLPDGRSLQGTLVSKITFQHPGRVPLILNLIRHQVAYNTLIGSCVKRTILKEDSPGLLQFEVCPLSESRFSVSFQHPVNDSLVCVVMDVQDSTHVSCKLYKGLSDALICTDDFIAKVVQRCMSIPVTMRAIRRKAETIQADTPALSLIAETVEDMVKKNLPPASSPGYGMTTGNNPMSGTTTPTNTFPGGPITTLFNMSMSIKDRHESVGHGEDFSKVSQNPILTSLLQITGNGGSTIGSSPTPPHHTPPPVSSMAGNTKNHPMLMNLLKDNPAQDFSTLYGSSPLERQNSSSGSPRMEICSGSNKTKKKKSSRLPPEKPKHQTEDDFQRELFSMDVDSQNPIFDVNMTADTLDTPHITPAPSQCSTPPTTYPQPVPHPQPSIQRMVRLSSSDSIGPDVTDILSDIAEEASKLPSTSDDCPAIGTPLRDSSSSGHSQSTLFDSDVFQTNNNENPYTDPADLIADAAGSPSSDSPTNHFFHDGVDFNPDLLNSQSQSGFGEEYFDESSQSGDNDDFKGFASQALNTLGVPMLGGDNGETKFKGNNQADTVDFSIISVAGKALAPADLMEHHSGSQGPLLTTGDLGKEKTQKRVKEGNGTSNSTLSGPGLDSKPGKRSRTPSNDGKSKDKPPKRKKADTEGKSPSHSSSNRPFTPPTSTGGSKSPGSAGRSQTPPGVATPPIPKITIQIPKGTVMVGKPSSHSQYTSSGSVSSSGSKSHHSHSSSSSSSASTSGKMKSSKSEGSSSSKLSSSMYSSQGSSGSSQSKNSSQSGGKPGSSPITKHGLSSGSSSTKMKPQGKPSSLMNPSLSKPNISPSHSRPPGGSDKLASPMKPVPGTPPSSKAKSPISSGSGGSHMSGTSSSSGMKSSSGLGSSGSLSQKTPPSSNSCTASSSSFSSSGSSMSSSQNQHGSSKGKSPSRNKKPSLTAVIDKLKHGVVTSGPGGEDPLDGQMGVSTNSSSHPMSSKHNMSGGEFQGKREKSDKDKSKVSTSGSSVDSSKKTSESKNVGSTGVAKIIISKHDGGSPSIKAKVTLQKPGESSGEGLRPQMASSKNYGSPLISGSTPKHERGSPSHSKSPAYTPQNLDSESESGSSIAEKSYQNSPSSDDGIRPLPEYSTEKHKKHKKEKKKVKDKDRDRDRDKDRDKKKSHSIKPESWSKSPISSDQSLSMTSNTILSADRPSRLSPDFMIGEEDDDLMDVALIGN

[19] = target: HEK293 cell lysate proteins (Homo sapiens, UniProt Q3KQU3)
[20] = target: HEK293 cell lysate proteins (Homo sapiens, UniProt Q52LG2)
[21] = target: HEK293 cell lysate proteins (Homo sapiens, UniProt Q5T749)
Chain of HEK293 cell lysate proteins (Homo sapiens, UniProt Q5T749) (Q5T749 whole entry): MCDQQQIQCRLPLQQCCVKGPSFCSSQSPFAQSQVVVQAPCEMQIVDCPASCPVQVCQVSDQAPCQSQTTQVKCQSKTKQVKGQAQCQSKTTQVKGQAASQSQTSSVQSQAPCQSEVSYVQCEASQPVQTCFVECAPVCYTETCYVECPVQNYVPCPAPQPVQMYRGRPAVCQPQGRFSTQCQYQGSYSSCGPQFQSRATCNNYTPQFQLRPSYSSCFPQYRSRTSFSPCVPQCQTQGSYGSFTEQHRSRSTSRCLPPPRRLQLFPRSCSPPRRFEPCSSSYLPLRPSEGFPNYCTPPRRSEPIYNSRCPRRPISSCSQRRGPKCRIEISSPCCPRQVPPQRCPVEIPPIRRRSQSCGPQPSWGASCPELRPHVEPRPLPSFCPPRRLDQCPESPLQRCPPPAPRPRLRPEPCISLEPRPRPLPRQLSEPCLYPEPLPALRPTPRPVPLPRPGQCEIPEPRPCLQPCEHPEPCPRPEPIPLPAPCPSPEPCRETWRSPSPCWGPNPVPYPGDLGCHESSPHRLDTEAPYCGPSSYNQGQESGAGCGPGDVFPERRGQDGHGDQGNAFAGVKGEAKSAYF

[22] = target: HEK293 cell lysate proteins (Homo sapiens, UniProt Q5T750)
[23] = target: HEK293 cell lysate proteins (Homo sapiens, UniProt Q6ZVX7)
[24] = target: HEK293 cell lysate proteins (Homo sapiens, UniProt Q8N1N4)
[25] = target: HEK293 cell lysate proteins and CHIKV nsP2 (Homo sapiens, UniProt O60814)
[26] = target: HEK293 cell lysate proteins and CHIKV nsP2 (Homo sapiens, UniProt O75223)
Chain of HEK293 cell lysate proteins and CHIKV nsP2 (Homo sapiens, UniProt O75223) (O75223 whole entry): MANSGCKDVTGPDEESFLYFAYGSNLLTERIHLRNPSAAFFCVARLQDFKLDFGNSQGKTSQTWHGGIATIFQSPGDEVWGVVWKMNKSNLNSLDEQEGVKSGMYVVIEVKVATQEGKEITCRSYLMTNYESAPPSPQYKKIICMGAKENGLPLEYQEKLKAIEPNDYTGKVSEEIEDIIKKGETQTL

[27] = target: HEK293 cell lysate proteins and CHIKV nsP2 (Homo sapiens, UniProt P04406)
Chain of HEK293 cell lysate proteins and CHIKV nsP2 (Homo sapiens, UniProt P04406) (P04406 whole entry): as the sequence (P04406 whole entry) above

[28] = target: HEK293 cell lysate proteins and CHIKV nsP2 (Homo sapiens, UniProt P11388)
[29] = target: HEK293 cell lysate proteins and CHIKV nsP2 (Homo sapiens, UniProt P13639)
[30] = target: HEK293 cell lysate proteins and CHIKV nsP2 (Homo sapiens, UniProt P14923)
[31] = target: HEK293 cell lysate proteins and CHIKV nsP2 (Homo sapiens, UniProt P26368)
[32] = target: HEK293 cell lysate proteins and CHIKV nsP2 (Homo sapiens, UniProt P27708)
[33] = target: HEK293 cell lysate proteins and CHIKV nsP2 (Homo sapiens, UniProt P31025)
[34] = target: HEK293 cell lysate proteins and CHIKV nsP2 (Homo sapiens, UniProt P62979)
[35] = target: HEK293 cell lysate proteins and CHIKV nsP2 (Homo sapiens, UniProt Q12872)
[36] = target: HEK293 cell lysate proteins and CHIKV nsP2 (Homo sapiens, UniProt Q14151)
[37] = target: HEK293 cell lysate proteins and CHIKV nsP2 (Homo sapiens, UniProt Q5T750)
[38] = target: HEK293 cell lysate proteins and CHIKV nsP2 (Homo sapiens, UniProt Q6KC79)
[39] = target: HEK293 cell lysate proteins and CHIKV nsP2 (Homo sapiens, UniProt Q86UP2)

Chain of HEK293 cell lysate proteins (Homo sapiens, UniProt O75342) (O75342 whole entry): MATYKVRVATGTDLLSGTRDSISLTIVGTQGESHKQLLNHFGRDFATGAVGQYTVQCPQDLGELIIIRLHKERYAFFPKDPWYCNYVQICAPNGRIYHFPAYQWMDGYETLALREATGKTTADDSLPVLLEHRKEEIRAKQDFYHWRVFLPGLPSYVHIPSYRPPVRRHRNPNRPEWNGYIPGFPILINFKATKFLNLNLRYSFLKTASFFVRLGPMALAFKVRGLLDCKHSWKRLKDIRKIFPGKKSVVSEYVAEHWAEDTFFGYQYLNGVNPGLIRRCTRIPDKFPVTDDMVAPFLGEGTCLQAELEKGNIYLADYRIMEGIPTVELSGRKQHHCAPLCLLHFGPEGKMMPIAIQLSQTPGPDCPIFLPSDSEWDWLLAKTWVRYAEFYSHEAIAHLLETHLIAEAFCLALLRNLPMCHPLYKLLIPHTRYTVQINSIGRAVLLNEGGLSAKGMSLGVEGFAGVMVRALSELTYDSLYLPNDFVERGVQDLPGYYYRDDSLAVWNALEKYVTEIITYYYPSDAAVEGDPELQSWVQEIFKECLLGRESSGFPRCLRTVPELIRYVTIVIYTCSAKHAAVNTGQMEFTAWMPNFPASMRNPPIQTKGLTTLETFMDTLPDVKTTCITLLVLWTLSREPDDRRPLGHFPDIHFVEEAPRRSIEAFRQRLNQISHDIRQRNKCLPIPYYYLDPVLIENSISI

C#CCOc1ccccc1-c1cc(C(=O)NC/C=C/S(C)(=O)=O)on1 [VS, (E)-N-(3-(methylsulfonyl)allyl)−3-(2-(prop-2-yn-1-yloxy)phenyl)isoxazole-5-carboxamide] showed a Log2 fold change [1] of 2.14, a Log2 fold change [2] of 1.10 and a Log2 fold change [3] of 1.49. The Log2 fold change [4] was 1.78, the Log2 fold change [5] was 1.52 and the Log2 fold change [6] was 1.84. For the same molecule, the Log2 fold change [7] was 1.15, the Log2 fold change [8] was -1.66 and the Log2 fold change [9] was 2.72. For the same molecule, the Log2 fold change [10] was 1.43, the Log2 fold change [11] was 1.48 and the Log2 fold change [12] was 1.54. It also gave a Log2 fold change [13] of 1.36, a Log2 fold change [14] of 1.36 and a Log2 fold change [15] of 1.61. For the same molecule, the Log2 fold change [16] was 3.81, the Log2 fold change [17] was -2.16 and the Log2 fold change [18] was -1.21. The Log2 fold change [19] was -2.07, the Log2 fold change [20] was 3.14 and the Log2 fold change [21] was 2.53. It also gave a Log2 fold change [22] of 2.49, a Log2 fold change [23] of 2.74 and a Log2 fold change [24] of 1.62. For the same molecule, the Log2 fold change [25] was -1.93, the Log2 fold change [26] was 0.96 and the Log2 fold change [27] was 1.78. The Log2 fold change [28] was -1.34, the Log2 fold change [29] was 1.35 and the Log2 fold change [30] was 1.97. The Log2 fold change [31] was -0.62, the Log2 fold change [32] was 3.37 and the Log2 fold change [33] was 1.54. It also gave a Log2 fold change [34] of 0.71, a Log2 fold change [35] of -1.75 and a Log2 fold change [36] of 1.50. The Log2 fold change [37] was 2.49, the Log2 fold change [38] was -0.34 and the Log2 fold change [39] was 0.34.
